Type in all cases: cell-based, human
Data set [1] relates to caspase-3/7 in PC-3 cells. Nature of the data set: Caspase-Glo 3/7 bioluminescent assay, PC-3. On the procedure:
(§1) A time-dependent study of caspase-3/7, -8, and -9 activities was performed in triplicates using assay kits Caspase-Glo 3/7, 8, and 9 (Promega Corp.,Madison,WI, USA) on white 96-well microplate as described previously. A total of 10,000 cells per well was seeded and treated with […] of subditine (1) for 6, 12, 18, 24, and 30 hours. Then, 100 µL of the caspase-Glo reagent was added, incubated at room temperature for 30 minutes and measured using Tecan Infinite 200 Pro (Tecan, Mannedorf, Swizerland) microplate reader.

The test system of a further data set is LNCaP cells. Nature of the data set: Cellomics multiparameter cytotoxicity assay, LNCaP. As to the method:
(§2) Cytotoxicity 3 kit (Thermo Scientific) was used as described previously. Briefly, 24 hours after subditine (1) treatment, MMP dye and the cell permeability dye were added to live cells and incubated for 30 minutes at 37°C. Cells were fixed, permeabilized, blocked with 1x blocking buffer before probing with primary cytochrome c and secondary DyLight 649 conjugated goat anti-mouse IgG antibodies for 1 hour each. Hoechst 33342 was added into the staining solution. Plates were then analyzed using the ArrayScan high content screening (HCS) system (Cellomics, PA, USA). Data were captured, extracted and analyzed with ArrayScan II Data Acquisition and Data Viewer version 3.0.

In a further data set the test system is caspase-9 in PC-3 cells. Nature of the data set: Caspase-Glo 9 bioluminescent assay, PC-3. On the procedure: as §1
The subject of a further data set is PC-3 cells. Nature of the data set: Cellomics multiparameter cytotoxicity assay, PC-3. As to the method: as §2
Data set [2] concerns Bcl-2 expression in PC-3 cells. Put plainly: Western blotting, Bcl-2 in PC-3. Particulars: 24 h. On the procedure: (§3) To determine protein expression, 1×10^6 cells/mL were seeded and treated with subditine (1) or paclitaxel for 24 h. Whole cell extracts were prepared as previously described. Briefly, cells were collected, lysed and resolved on 10% SDS-polyacrylamide gels. After electrophoresis, the proteins were transferred to PVDF membranes (Millipore), blocked with 5% nonfat dry milk in PBS-T (0.05% Tween 20) for 1 hour at room temperature. Membranes were probed with primary rabbit anti-Bcl-2, Bcl-xL or p53 antibodies followed by horseradish peroxidase (HRP)-conjugated secondary anti-rabbit antibody (Cell Signaling Technology Inc., CA, USA). Membranes were stripped and reprobed with mouse anti-β-actin antibody as loading control (Santa Cruz Biotechnology Inc.). Protein-antibody complexes were detected with Amersham ECL prime Western blotting detection reagent (GE Healthcare, USA).
A general note: In western blotting, separated proteins are transferred to a membrane and probed.

The subject of data set [3] is glutathione reductase (GR) gene expression in PC-3 cells. Nature of the data set: Oxidative stress and antioxidant defense qPCR-array, PC-3. Particulars: PC-3, 12.5 µM, 18 h, relative to control cells. On the procedure:
LNCaP and PC-3 cells were treated with subditine (1) (12.5 µM) for 18 h. RNA was extracted from PC-3 or LNCaP cells using RNeasy plus mini kit (Qiagen). 1 µg of RNA was reverse transcribed into cDNA using the RT2 first strand kit (SA Biosciences, Qiagen).cDNA was mixed with RT2 Real Time™ SYBR Green/fluorescein PCR master-mix and loaded into each 96 wells of the Human Oxidative Stress and Antioxidant Defense qPCR array according to the manufacturer’s protocol (SA Biosciences, Qiagen). Briefly, a total volume of 25 µl of PCR mixture, which included 12.5 µl of mastermix, 11.5 µl of double distilled water, and 1 µl of cDNA was loaded into each of the 96wells. qPCR were done using StepOne PLUS real-time PCR machine (Applied Biosystems). PCR amplification was conducted at 95°C for 10 min, followed by 40 cycles of 95°C for 15 sec and 60°C for 1 min. The mRNA expression for each gene was normalized using the average expression of five housekeeping genes:
β-actin (ACTB), β-2-microglobulin (β2M), hypoxanthine phosphoribosyltransferase 1 (HPRT1), ribosomal protein L13a (RPL13A) and glyceraldehyde-3-phosphate dehydrogenase (GAPDH). The ΔΔCt method was used for data analysis. Fold changes were calculated for each gene as the difference in gene expression between subditine (1) or non-treated control using the RT Profiler qPCR-array data analysis software.
On the technique in general: In qPCR the cycle at which signal appears reflects the starting amount.

Another data set has as its system caspase-8 in LNCaP cells. Nature of the data set: Caspase-Glo 8 bioluminescent assay, LNCaP. Particulars: 12.5 µM, throughout 30 hours. As to the method:
as §1

The subject of data set [4] is Bcl-xL expression in LNCaP cells. Nature of the data set: Western blotting, Bcl-xL in LNCaP. Particulars: 24 h. As to the method: as §3
Data set [5] relates to intracellular ROS in PC-3 cells. Nature of the data set: ROS assay (DHE dye, Cellomics HCS), PC-3. Particulars: PC-3, 12.5, 25, 50 µM, 24 h. On the procedure:
The production of intracellular ROS was detected as described previously. The DHE dye reagent is converted to fluorescent ethidium and intercalates into DNA in response intracellular ROS. Briefly, 10 mM DHE stock solution (in methanol) was diluted 500-fold in HBSS without serum or other additives to yield a 20 µM working solution. After exposure to subditine (1), the cells in the 96-well black plate was washed twice with HBSS and then incubated in 100 µL working solution of DHE at 37°C for 30 minutes. Fluorescence of DCF in each cell was captured, extracted and analyzed with ArrayScan II Data Acquisition and Data Viewer version 3.0 (Cellomics).

Data set [6] relates to Bcl-2 expression in LNCaP cells. Put plainly: Western blotting, Bcl-2 in LNCaP. Particulars: 24 h. As to the method:
as §3

Data set [7] deals with p53 expression in PC-3 cells. Put plainly: Western blotting, p53 in PC-3. Particulars: PC-3 (p53-null), 24 h. As to the method: as §3
The subject of data set [8] is caspase-3/7 in LNCaP cells. Put plainly: Caspase-Glo 3/7 bioluminescent assay, LNCaP. On the procedure:
as §1

[9] abbreviates: PC-3, after 12 and 24 hours exposure, 12.25 µM.
Where [10] appears, read: PC-3, 24 h, compared to control.

Each structure is given as a SMILES string. A value given as a limit tells only on which side of the number the result lay.

For `Cc1ncc2c(=O)n3c(cc2c1C=O)-c1[nH]c2ccccc2c1CC3` [Subditine, subditine], the caspase-3/7 activity result in data set [1] (setting [9]) is recorded as “significant increase”; in data set [8] (after 12 and 24 hours exposure, 12.25 µM), “significant increase”. Besides, the “time of peak caspase-3/7 activity” value was 18 h in data set [1] (PC-3, time points 6-30 hours) and 18 h in data set [8] (time points 6-30 hours). Also, the “cytochrome c release (cytosolic staining)” value is reported as “increased fluorescent-staining in the cytosol” in the data set on LNCaP cells (24 h, compared to control) and “increased fluorescent-staining in the cytosol” in the data set with PC-3 cells (setting [10]). In addition, the membrane permeability entry is “higher membrane permeability” with LNCaP cells (24 h, compared to control) and “higher membrane permeability” with PC-3 cells (setting [10]). Moreover, the “mitochondrial membrane potential (MMP) fluorescence intensity” value in the data set with LNCaP cells (24 hours) is listed as “dose-dependent reduction”; with PC-3 cells (PC-3, 24 hours) it was “dose-dependent reduction”. Further, the caspase-9 activity result with caspase-9 in PC-3 cells (setting [9]) is “significant increase”. The “time of highest caspase-9 activity” value with caspase-9 in PC-3 cells (PC-3, time points 6-30 hours) amounted to 24 h. The Bcl-2 protein expression result in data set [2] (PC-3, 12.5 µM, compared to control) is “no significant change”; in data set [2] (PC-3, 25 and 50 µM), “drastically down-regulated”. Also, in data set [3], the “glutathione reductase (GR) gene expression fold change” value is recorded as over 20 fold. The “caspase 8 activity” value in the data set on caspase-8 in LNCaP cells is on record as “No significant fold-change”. Moreover, in data set [4], the Bcl-xL expression entry is reported as “down-regulation”. Moreover, the “ROS production (DCF/DHE fluorescence level)” value in [5] is on record as “significantly increased in a dose-dependent manner”. In data set [6], the Bcl-2 expression result is listed as “down-regulation”. Besides, the p53 expression result in [7] is given as “did not restore or enhance”.
